{
  "source": "paper PMC4995097",
  "about": "“Talin-KANK1 interaction controls the recruitment of cortical microtubule stabilizing complexes to focal adhesions” (eLife, 2016)",
  "format_in_all_cases": "cell-based, human",
  "key": {"[1]": {"tested_on": "KANK1 at the cell edge of HeLa cells", "assay": "Peripheral clustering of KANK1", "protocol": "(§1) HeLa Kyoto cell line was described previously ([Lansbergen et al., 2006]; [Mimori-Kiyosue et al., 2005]). HEK293T cells were purchased from ATCC; culture and transfection of DNA and siRNA into these cell lines was performed as previously described ([van der Vaart et al., 2013]). HaCaT cells were purchased at Cell Line Service (Eppelheim, Germany) and cultured according to manufacturer’s instructions. The cell lines were routinely checked for mycoplasma contamination using LT07-518 Mycoalert assay (Lonza, Switzerland).The identity of the cell lines was monitored by immunofluorescence-staining-based analysis with multiple markers. Blebbistatin was purchased from Enzo Life Sciences and used at 50 μM. Serum starvation in HeLa cells was done for 48 hr and focal adhesion assembly was stimulated by incubation with fetal calf serum-containing medium with or without blebbistatin for 2 hr. ROCK1 inhibitor Y-27632 was purchased at Sigma-Aldrich and used at 1 or 10 μM. Double stable HeLa cell line expressing GFP-KANK1 and TagRFP-paxillin was made by viral infection. We used a pLVIN-TagRFP-paxillin-based lentivirus and a pQC-GFP-KANK1-based retrovirus packaged in HEK293T cells using respectively Lenti-X HTX packaging and pCL-Ampho vectors. Antibiotic selection was applied to cells 48 hr after infection using 500 μg/ml G418 (Geneticin, Life Technologies) and 1 μg/ml puromycin (InvivoGen).\nAntibodies against HA and GFP tags, and liprin β1 used for Western blot analysis were previously described ([van der Vaart et al., 2013]). Rabbit antibodies against KANK1 (HPA005539) and KANK2 (HPA015643) were purchased at Sigma-Aldrich. Western blot analysis of KANK1 was performed using rabbit polyclonal KANK1 antibody (A301-882A) purchased at Bethyl Laboratories. Talin immunofluorescence staining was performed using mouse monoclonal 8d4 antibody (Sigma-Aldrich). Western blot analysis of talin 1 and 2 expression was performed using respectively the isotype specific mouse monoclonal 97H6 (Sigma-Aldrich) and 68E7 (Abcam) antibodies. Ku80 (7/Ku80) antibody was purchased from BD Biosciences. Immunofluorescence staining of KANK1, LL5β, liprin β1, KIF21A and CLASP2 in HeLa and HaCaT cells was performed using the antibodies and procedures previously described ([Lansbergen et al., 2006]; [van der Vaart et al., 2013]). F-actin was stained using Alexa Fluor 594-conjugated phalloidin (Life Technologies). Phospho-tyrosine mouse antibody (PT-66) was purchased from Sigma-Aldrich and rabbit FAK phospho-tyrosine 397 was purchased from Biosource.\nFixed samples and corresponding immunofluorescence images were acquired using widefield fluorescence illumination on a Nikon Eclipse 80i or Ni upright microscope equipped with a CoolSNAP HQ2 CCD camera (Photometrics) or a DS-Qi2 camera (Nikon) an Intensilight C-HGFI precentered fiber illuminator (Nikon), ET-DAPI, ET-EGFP and ET-mCherry filters (Chroma), Nikon NIS Br software, Plan Apo VC 100x NA 1.4 oil, Plan Apo Lambda 100X oil NA 1.45 and Plan Apo VC 60x NA 1.4 oil (Nikon) objectives. TIRFM-based live cell imaging was performed using the setup described before ([van der Vaart et al., 2013]) or a similar Nikon Ti microscope-based Ilas^2 system (Roper Scientific, Evry, FRANCE) equipped with dual laser illuminator for azimuthal spinning TIRF (or Hilo) illumination, 150 mW 488 nm laser and 100 mW 561 nm laser, 49,002 and 49,008 Chroma filter sets, EMCCD Evolve mono FW DELTA 512x512 camera (Roper Scientific) with the intermediate lens 2.5X (Nikon C mount adapter 2.5X), CCD camera CoolSNAP MYO M-USB-14-AC (Roper Scientific) and controlled with MetaMorph 7.8.8 software (Molecular Devices). Simultaneous imaging of […] was performed as described before ([van der Vaart et al., 2013]) or using the Optosplit III image splitter device (Andor) on the Ilas^2 system.\nFor presentation, images were adjusted for brightness and processed by Gaussian blur and Unsharp mask filter using ImageJ 1.47v (NIH). […]"}, "[2]": {"tested_on": "focal adhesions in HeLa cells", "assay": "FA number", "protocol": "as §1\n(§2) For presentation, images were adjusted for brightness and processed by Gaussian blur and Unsharp mask filter using ImageJ 1.47v (NIH). Fluorescence profiles are values measured by line scan analysis in ImageJ, normalized by background average fluorescence, expressed as a factor of the baseline value obtained for individual channel and plotted as a function of maximum length factor of the selection line (distance ratio). Protein clustering at the cell edge is the ratio of the total fluorescence in the first 5 μm from the cell edge to the next 5 μm measured by line scan analysis in ImageJ after thresholding for cell outline marking and out-of-cell region value assigned to zero. The results were plotted as percentage of control condition average value. FA counting and area measurement was performed using Analyze Particles under ImageJ on focal adhesion binary mask obtained after Gaussian blur/threshold-based cell outline marking and background subtraction (rolling ball radius, 10 pixels). KANK1/talin colocalization was analyzed using Pearson R value provided by Colocalization Analysis plugin under FiJi-ImageJ and a 3 μm diameter circular ROI centered on talin clusters detected by immunofluorescent staining."}, "HeLa cells": {"tested_on": "HeLa cells", "assay": "Cell area, attachment and spreading", "design": "AV Cell Area: unit not given here", "protocol": "as §1, §2"}, "[3]": {"tested_on": "microtubule plus ends in HeLa cells", "assay": "Angles of microtubule growth relative to the cell margin", "conditions": "talin1/2-depleted HeLa", "protocol": "nEB3-mRFP dynamics was recorded by 0.5 s interval time lapse TIRF imaging. Microtubule growth was measured using kymographs obtained from EB3-mRFP time lapse image series, plotted and presented as previously described ([van der Vaart et al., 2013]). Ratio of microtubule growth in cell center to periphery was obtained as values for individual cells. Microtubule growth trajectory angle to the cell edge was manually measured in ImageJ using tracks obtained by maximum intensity projection of EB3-mRFP image series."}},
  "data": [
    {"substance": "GFP-talin1-G1404L: GFP-tagged mouse talin1 with single point mutation G1404L", "values": [
      {"measurement": "Peripheral clustering of KANK1, edge ratio, AV", "setting": "[1]; talin1/2-depleted HeLa rescued with GFP-talin1 (Fig 3F), mean, n = 12", "result": 0.9974},
      {"measurement": "KANK1 distribution, talin rescue (in words)", "setting": "[1]; talin1/2-depleted HeLa, Figure 3E,F", "result": "dispersed over the plasma membrane"},
      {"measurement": "AV #FA", "setting": "[2]; HeLa, TLN1-KD, mTLN1 rescue, mean FA number per cell, Count 12", "result": 55.3333},
      {"measurement": "number and size of focal adhesions (in words)", "setting": "[2]; compared to rescue with wild type talin1", "result": "not significantly different"},
      {"measurement": "AV Cell Area", "setting": "HeLa cells; HeLa, TLN1-KD, mTLN1 rescue, mean, Count 13", "result": 1671.82},
      {"measurement": "cell area (in words)", "setting": "HeLa cells; compared to rescue with wild type GFP-talin1", "result": "slightly increased compared to cells rescued with the wild type GFP-talin1"},
      {"measurement": "cell attachment and spreading (in words)", "setting": "HeLa cells; talin1/2-depleted HeLa", "result": "could fully support cell attachment and spreading"},
      {"measurement": "proportion of microtubules growing parallel to the cell edge (in words)", "setting": "[3]", "result": "greatly increased"}
    ]}
  ]
}
